From patent US20250235543A1, “MODIFIED PROTEINS AND PROTEIN DEGRADERS” (Cullgen (Shanghai), Inc., priority 2021, published 2025)

Assays:
cyclin D1 = assay: Cyclin D1 percentage degradation in Calu-1 cells (immunoblotting); format: cell-based; conditions: 200 nM, 16 hours
Outline: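 Cells were rinsed once in cold PBS and lysed in cold RIPA buffer containing protease and phosphatase inhibitors, with gentle agitation at 4° C. for 30 min. Lysates were spun at 13,000 rpm for 10 min at 4° C., protein was measured by BCA, and samples were boiled in Laemmli buffer at 99° C. for 5 min before SDS-PAGE immunoblotting.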

CDK4 = target: T1, CDK4 (Homo sapiens, UniProt P11802); assay: CDK4 percentage degradation in Calu-1 cells (immunoblotting); format: cell-based; conditions: Calu-1 cells, 200 nM, 16 hours; read-out: CDK4 Degradation (200 nM)
T1 construct: endogenous in cells; host or cells: Calu-1
T1 sequence (P11802 2-303 limits assumed): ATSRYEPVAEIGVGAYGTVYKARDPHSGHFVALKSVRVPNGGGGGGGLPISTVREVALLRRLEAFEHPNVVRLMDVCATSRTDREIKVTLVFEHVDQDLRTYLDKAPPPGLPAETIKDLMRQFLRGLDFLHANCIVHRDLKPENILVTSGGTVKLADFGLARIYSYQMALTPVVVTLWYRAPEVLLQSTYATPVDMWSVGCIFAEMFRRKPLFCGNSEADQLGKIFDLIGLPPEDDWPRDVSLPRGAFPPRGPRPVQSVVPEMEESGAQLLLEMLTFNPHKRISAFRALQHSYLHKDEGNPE
T1 sequence (P24385 whole entry partner): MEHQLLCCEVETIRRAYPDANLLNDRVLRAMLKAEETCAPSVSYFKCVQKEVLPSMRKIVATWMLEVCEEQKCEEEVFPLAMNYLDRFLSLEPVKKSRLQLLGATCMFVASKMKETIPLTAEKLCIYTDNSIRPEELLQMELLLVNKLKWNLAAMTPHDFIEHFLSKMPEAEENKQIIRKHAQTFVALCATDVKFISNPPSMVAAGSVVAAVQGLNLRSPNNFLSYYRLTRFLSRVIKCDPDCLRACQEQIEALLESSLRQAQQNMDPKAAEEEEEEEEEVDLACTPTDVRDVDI
T1 sequence (Q16531 2-1140 limits assumed, further chain): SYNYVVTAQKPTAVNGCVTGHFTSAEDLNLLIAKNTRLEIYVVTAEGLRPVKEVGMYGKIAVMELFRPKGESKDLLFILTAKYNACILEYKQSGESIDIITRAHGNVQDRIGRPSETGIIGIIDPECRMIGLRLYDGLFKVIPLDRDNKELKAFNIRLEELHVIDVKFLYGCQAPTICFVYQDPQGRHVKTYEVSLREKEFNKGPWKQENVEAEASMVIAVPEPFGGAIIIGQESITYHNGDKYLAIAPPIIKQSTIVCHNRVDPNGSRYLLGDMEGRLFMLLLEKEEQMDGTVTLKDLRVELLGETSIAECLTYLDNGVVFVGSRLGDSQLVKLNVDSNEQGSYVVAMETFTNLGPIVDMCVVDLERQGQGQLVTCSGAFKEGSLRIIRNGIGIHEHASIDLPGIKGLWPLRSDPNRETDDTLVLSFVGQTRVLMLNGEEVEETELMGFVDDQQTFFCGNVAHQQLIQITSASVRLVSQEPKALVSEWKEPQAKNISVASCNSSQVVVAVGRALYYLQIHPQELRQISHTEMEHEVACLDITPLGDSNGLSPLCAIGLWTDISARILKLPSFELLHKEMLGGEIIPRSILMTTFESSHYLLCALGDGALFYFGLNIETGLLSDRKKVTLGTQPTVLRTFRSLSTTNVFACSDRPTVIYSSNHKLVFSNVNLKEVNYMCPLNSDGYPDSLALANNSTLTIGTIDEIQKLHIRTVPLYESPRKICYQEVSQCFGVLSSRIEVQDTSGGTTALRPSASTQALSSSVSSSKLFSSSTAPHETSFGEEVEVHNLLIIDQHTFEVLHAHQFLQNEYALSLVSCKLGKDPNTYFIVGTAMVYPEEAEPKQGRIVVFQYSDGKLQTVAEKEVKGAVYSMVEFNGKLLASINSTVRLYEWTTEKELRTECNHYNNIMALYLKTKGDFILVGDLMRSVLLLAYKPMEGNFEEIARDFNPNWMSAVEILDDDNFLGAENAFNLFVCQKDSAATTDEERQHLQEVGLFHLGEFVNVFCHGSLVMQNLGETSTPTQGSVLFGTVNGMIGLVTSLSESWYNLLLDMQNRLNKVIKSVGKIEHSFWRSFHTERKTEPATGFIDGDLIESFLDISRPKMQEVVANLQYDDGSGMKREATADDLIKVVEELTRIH
Outline: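 Cultured cells were rinsed once in cold PBS and lysed in cold RIPA buffer containing protease and phosphatase inhibitors, with gentle agitation at 4° C. for 30 min. Lysates were centrifuged at 13,000 rpm for 10 min at 4° C., and protein was quantified by BCA. Samples were then separated by SDS-PAGE, detected with ECL, and the CDK4 bands quantified in Image Lab.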

| inhibition at 0.2 µM (CDK4) [%] | SMILES | CyclinD1 Degradation (200 nM) (cyclin D1) |
| --- | --- | --- |
| 50 to 80 | CC(=O)c1c(C)c2cnc(Nc3ccc(N4CCN(CC(=O)NCCCCCNc5cc(F)ccc5C(=O)Nc5ccc(N(C)C)nn5)CC4)cn3)nc2n(C2CCCC2)c1=O [CPD-372, 2-((5-(2-(4-(6-((6-Acetyl-8-cyclopentyl-5-methyl-7-oxo-7,8-dihydropyrido[2,3-d]pyrimidin-2-yl)amino)pyridin-3-yl)piperazin-1-yl)acetamido)pentyl)amino)-N-(6-(dimethylamino)pyridazin-3-yl)-4-fluorobenzamide] | A (protein percentage degradation >=80%) |
| < 30 | COC(=O)c1cnc(NC(=O)c2ccc(NCCOCCOCCOCCOCCOCCNC(=O)CN3CCN(c4ccc(Nc5ncc6c(C)c(C(C)=O)c(=O)n(C7CCCC7)c6n5)nc4)CC3)cc2C)s1 [CPD-032, Methyl 2-(4-((1-(4-(6-((6-acetyl-8-cyclopentyl-5-methyl-7-oxo-7,8-dihydropyrido[2,3-d]pyrimidin-2-yl)amino)pyridin-3-yl)piperazin-1-yl)-2-oxo-6,9,12,15,18-pentaoxa-3-azaicosan-20-yl)amino)-2-methylbenzamido)thiazole-5-carboxylate] | D (protein percentage degradation <30%) |
| 50 to 80 | CC(=O)c1c(C)c2cnc(Nc3ccc(N4CCN(CC(=O)NCCCCCNc5cc(C)ccc5C(=O)Nc5ccc(N(C)C)nn5)CC4)cn3)nc2n(C2CCCC2)c1=O [CPD-373, 2-((5-(2-(4-(6-((6-Acetyl-8-cyclopentyl-5-methyl-7-oxo-7,8-dihydropyrido[2,3-d]pyrimidin-2-yl)amino)pyridin-3-yl)piperazin-1-yl)acetamido)pentyl)amino)-N-(6-(dimethylamino)pyridazin-3-yl)-4-methylbenzamide] | A (protein percentage degradation >=80%) |
| < 30 | CC(=O)c1c(C)c2cnc(Nc3ccc(N4CCN(CC(=O)NCCOCCOCCOCCNC(=O)COc5ccc(C(=O)Nc6ncc(C)s6)c(C)c5)CC4)cn3)nc2n(C2CCCC2)c1=O [CPD-040, 4-((17-(4-(6-((6-Acetyl-8-cyclopentyl-5-methyl-7-oxo-7,8-dihydropyrido[2,3-d]pyrimidin-2-yl)amino)pyridin-3-yl)piperazin-1-yl)-2,16-dioxo-6,9,12-trioxa-3,15-diazaheptadecyl)oxy)-2-methyl-N-(5-methylthiazol-2-yl)benzamide] | D (protein percentage degradation <30%) |
| 30 to 50 | CC(=O)c1c(C)c2cnc(Nc3ccc(N4CCN(CC(=O)NCCOCCOCCOCCOCCOCCNc5ccc(CNc6nc(C)c(C)s6)c(C)c5)CC4)cn3)nc2n(C2CCCC2)c1=O [CPD-166, 2-(4-(6-((6-Acetyl-8-cyclopentyl-5-methyl-7-oxo-7,8-dihydropyrido[2,3-d]pyrimidin-2-yl)amino)pyridin-3-yl)piperazin-1-yl)-N-(17-((4-(((4,5-dimethylthiazol-2-yl)amino)methyl)-3-methylphenyl)amino)-3,6,9,12,15-pentaoxaheptadecyl)acetamide] | B (protein percentage degradation <80%, and >=50%) |
| < 30 | CC(=O)c1c(C)c2cnc(Nc3ccc(N4CCN(CC(=O)NCCCCCCCCNc5ccc(C)c(C(=O)Nc6nc(C)c(C)s6)c5)CC4)cn3)nc2n(C2CCCC2)c1=O [CPD-095, 5-((8-(2-(4-(6-((6-Acetyl-8-cyclopentyl-5-methyl-7-oxo-7,8-dihydropyrido[2,3-d]pyrimidin-2-yl)amino)pyridin-3-yl)piperazin-1-yl)acetamido)octyl)amino)-N-(4,5-dimethylthiazol-2-yl)-2-methylbenzamide] | D (protein percentage degradation <30%) |
